From ChEMBL document CHEMBL1138959, “Novel class of cyclophosphamide prodrug: cyclophosphamide spiropiperaziniums (CPSP)” (Bioorg Med Chem Lett, 2006)

Assays:
CCRF S-180 [1] = assay: Antitumor activity against S180 cells implanted in mouse at 30 mg/kg, ip; type: functional; details: route intraperitoneal; for inhibition in vivo at 30 mg/kg: Mus musculus, CCRF S-180, ip
H22 [2] = assay: Antitumor activity against H22 cells implanted in mouse at 30 mg/kg, ip; type: functional; details: route intraperitoneal; for inhibition in vivo at 30 mg/kg: Mus musculus, H22, ip
CCRF S-180 [3] = assay: Antitumor activity against S180 cells implanted in mouse at 15 mg/kg, ip; type: functional; details: CCRF S-180, ip, route intraperitoneal
CCRF S-180 [4] = assay: Antitumor activity against S180 cells implanted in mouse at 60 mg/kg, ip; type: functional; details: CCRF S-180, ip, route intraperitoneal
H22 [5] = assay: Antitumor activity against H22 cells implanted in mouse at 15 mg/kg, ip; type: functional; details: route intraperitoneal
H22 [6] = assay: Antitumor activity against H22 cells implanted in mouse at 60 mg/kg, ip; type: functional; details: route intraperitoneal
[7] = Toxicity in ip dosed mouse; type: organism-based; details: in vivo

Compound	inhibition in vivo at 30 mg/kg (CCRF S-180 [1])	inhibition in vivo at 30 mg/kg (H22 [2])	further results
C[N+]1(C)CCN(P2(=O)NCCCO2)CC1 (centres undefined)	33.5%	28.8%	–
CC1C[N+]2(CCN(P3(=O)NCCCO3)CC2)CC(C)O1 (centres undefined)	46.6%	20.6%	–
CN1CC[N+]2(CC1)CCN(P1(=O)NCCCO1)CC2.[Br-] (centres undefined)	–	–	Inhibition (CCRF S-180 [1]): 18.72%; Inhibition (H22 [2]): 11.6%
CN1CC[N+]2(CC1)CCN(P1(=O)NCCCO1)CC2.[I-] (centres undefined)	–	–	Inhibition (CCRF S-180 [1]): 29.41%; Inhibition (H22 [2]): 16.19%
CN1CC[N+]2(CC1)CCN(P1(=O)NCCCO1)CC2.[Cl-] (centres undefined)	–	–	Inhibition (CCRF S-180 [1]): 42.31%; Inhibition (H22 [2]): 41.66%; inhibition in vivo at 15 mg/kg (CCRF S-180 [3]): 37.5%; inhibition in vivo at 60 mg/kg (CCRF S-180 [4]): 55.2%; inhibition in vivo at 15 mg/kg (H22 [5]): 24.4%; inhibition in vivo at 60 mg/kg (H22 [6]): 38%; LD50 [7]: 1200 mg/kg
CC1CC[N+]2(CC1)CCN(P1(=O)NCCCO1)CC2 (centres undefined)	-13.3%	32.2%	–
C[N+]1(Cc2ccccc2)CCN(P2(=O)NCCCO2)CC1 (centres undefined)	-3.28%	-6.63%	–
O=P1(N2CC[N+]3(CCN(Cc4ccccc4)CC3)CC2)NCCCO1 (centres undefined)	33.7%	–	–
O=P1(N2CC[N+]3(CCCCC3)CC2)NCCCO1 (centres undefined)	39.9%	12.8%	–
O=P1(N2CC[N+]3(CCc4ccccc4C3)CC2)NCCCO1 (centres undefined)	18.9%	–	–
O=P1(N2CC[N+]3(CCCC3)CC2)NCCCO1 (centres undefined)	26.7%	17.3%	–
O=P1(N2CC[N+]3(CCNCC3)CC2)NCCCO1 (centres undefined)	10.7%	8.64%	–
O=P1(N2CC[N+]3(CCCCCC3)CC2)NCCCO1.[Cl-] (centres undefined)	36%	48.4%	inhibition in vivo at 15 mg/kg (CCRF S-180 [3]): 38.2%; inhibition in vivo at 60 mg/kg (CCRF S-180 [4]): 53.4%; inhibition in vivo at 15 mg/kg (H22 [5]): 17.2%; inhibition in vivo at 60 mg/kg (H22 [6]): 51.3%; LD50 [7]: 239 mg/kg
O=P1(N2CC[N+]3(CCOCC3)CC2)NCCCO1 (centres undefined)	-27.6%	32.5%	–
O=P1(N(CCCl)CCCl)NCCCO1 (centres undefined) [CYCLOPHOSPHAMIDE ANHYDROUS]	72.9%	72%	LD50 [7]: 387 mg/kg
